Results published in patent US8912146B2, “Derivatives of APF and methods of use” (University of Maryland, Baltimore, priority 2008, dated 2014).

Columns and labels:
[1] = test system: primary normal human bladder epithelial cells; details: Keay et al., 2004; cited from earlier work
[2] = test system: carcinoma cell lines (WiDr, HeLa, PANC-1, CaOv3, BT474, ACHN, T24, A549); experiment: 3H-thymidine incorporation in carcinoma cell lines; type: cell-based; details: 48 hrs
Procedure: Ovarian carcinoma (Caov-3), prostate carcinoma (LNCaP), melanoma (Hs839.T), pancreatic carcinoma (PANC-1), bladder carcinoma (T24, RT4 and TCCSuP), kidney carcinoma (ACHN), cervical carcinoma (HeLa), lung carcinoma (A549), colon carcinoma (WiDr), and breast carcinoma (Bt-474) cells were all purchased from the American Type Culture Collection (ATCC). Caov-3, HS839.T, PANC-1, and BT-474 cells were grown in DMEM medium (with 4 mM L-glutamine—Gibco BRL) containing 10% heat-inactivated fetal calf serum, 4.5 g/L glucose, 1.5 g/L sodium bicarbonate and 1% antibiotic/antimycotic solution (all supplements from Sigma except sodium bicarbonate which is from Gibco BRL). LNCaP cells were grown in RPMI medium (with 2 mM L-glutamine—Gibco BRL) containing10% heat-incativated fetal calf serum, 10 mM HEPES buffer, 1 mM sodium pyruvate, 4.5 g/L glucose, 1.5 g/L sodium bicarbonate, and 1% antibiotic/antimycotic solution (all supplements from Sigma except sodium bicarbonate which is from Gibco BRL). […]
Cancer (carcinoma or melanoma) cell proliferation was measured by ^3H-thymidine incorporation into each type of cancer cell, plating 3.0×10^3 cells/well (A549 cells) or 1.5×10^3 cells/well (all other cancer cells) onto a 96 well cell culture plate (VWR 29442-054), in 150 ul/well of the respective normal growth medium for each cell type (see above). […]
(§1) Significance of the difference in mean values between groups was determined by an analysis of variance.
(§2) Cell proliferation was measured by ^3H-thymidine incorporation into each cell type, plating cells in […] of their respective medium (see above) onto a 96-well cell culture plate (Corning, N.Y.) at a predetermined optimal cell density for APF inhibition of cell proliferation: Caov-3, PANC-1, T24, HeLa, and HS839.T cells were plated at a density of 1.5×10^3 cells/well; A549 cells were plated at a density of 3×10^3 cells/well. […] Cells were then incubated at 37° C. in a 5% CO2 atmosphere for 48 hours, after which cell contents were harvested, methanol-fixed onto glass fiber filter paper, and the amount of radioactivity incorporated determined. […]

[3] = test system: Akt/GSK3/beta catenin signaling in T24 bladder carcinoma cells; experiment: Western blot / qRT-PCR of Akt/GSK3/beta catenin signaling in T24 cells; type: cell-based; details: 50 nM
Procedure: Gene expression was determined by quantitative RT-PCR, and specific protein expression or phosphorylation was determined by Western blot. p53 mRNA and protein expression served as positive controls for APF activity. Beta actin expression served as a standard control for Western blot analyses (see FIGS. 38-40).

Hs839.T melanoma cells = experiment: 3H-thymidine incorporation in melanoma cells; type: cell-based
Procedure: Ovarian carcinoma (Caov-3), prostate carcinoma (LNCaP), melanoma (Hs839.T), pancreatic carcinoma (PANC-1), bladder carcinoma (T24, RT4 and TCCSuP), kidney carcinoma (ACHN), cervical carcinoma (HeLa), lung carcinoma (A549), colon carcinoma (WiDr), and breast carcinoma (Bt-474) cells were all purchased from the American Type Culture Collection (ATCC). Caov-3, HS839.T, PANC-1, and BT-474 cells were grown in DMEM medium (with 4 mM L-glutamine—Gibco BRL) containing 10% heat-inactivated fetal calf serum, 4.5 g/L glucose, 1.5 g/L sodium bicarbonate and 1% antibiotic/antimycotic solution (all supplements from Sigma except sodium bicarbonate which is from Gibco BRL). LNCaP cells were grown in RPMI medium (with 2 mM L-glutamine—Gibco BRL) containing10% heat-incativated fetal calf serum, 10 mM HEPES buffer, 1 mM sodium pyruvate, 4.5 g/L glucose, 1.5 g/L sodium bicarbonate, and 1% antibiotic/antimycotic solution (all supplements from Sigma except sodium bicarbonate which is from Gibco BRL). T24 and RT4 cells were grown in McCoy's 5A medium (Gibco BRL) containing 10% heat-inactivated fetal calf serum, 1% L-glutamine, 2.2 g/L sodium bicarbonate, and 1% antibiotic/antimycotic solution (all supplements from Sigma except sodium bicarbonate which is from Gibco BRL). TCCSuP, HeLa, and WiDr cells were grown in MEM (Gibco BRL) containing 10% heat-inactivated fetal calf serum, 1% L-glutamine, 1 mM sodium pyruvate, and 1% antibiotic/antimycotic solution (all supplements from Sigma). ACHN cells were grown in the same medium as TCCSuP and HeLa cells with the exception that it also contained 1.5 g/L sodium bicarbonate (Gibco BRL). A549 cells were grown in F12 medium (Gibco BRL) containing 10% heat-inactivated fetal calf serum, 1% L-glutamine, and 1% antibiotic/antimycotic solution (all supplements from Sigma).
Cancer (carcinoma or melanoma) cell proliferation was measured by ^3H-thymidine incorporation into each type of cancer cell, plating 3.0×10^3 cells/well (A549 cells) or 1.5×10^3 cells/well (all other cancer cells) onto a 96 well cell culture plate (VWR 29442-054), in 150 ul/well of the respective normal growth medium for each cell type (see above). All APF congeners were resuspended as described for normal bladder epithelial cells, except using the specific serum-free medium appropriate for each cell type, and the remainder of the assay was performed as described for normal bladder cells, above.
as §1
as §2, with “cells/well. On the next day, cell growth medium was removed and replaced with serum-free medium appropriate for each cell type.” for “cells/well.”

[4] = nonelectroporated T24 control cells, p<0.05

For `CC(=O)NC1C(O[C@@H]2OC(CO)[C@H](O)C(O)C2O)[C@@H](O)C(CO)O[C@@H]1OC(C)[C@H](N)C(=O)NC(C(=O)N1CCC[C@H]1C(=O)NC(C)C(=O)N[C@@H](C)C(=O)NC(C(=O)N[C@H](C(=O)NC(C(=O)N[C@@H](C)C(=O)O)C(C)C)C(C)C)C(C)C)C(C)C` (stereo partly drawn) [Derivative 1, Galβ1-3GalNAcα-O-TVPAAVVVA], the “activity in biological antiproliferation assays, previously determined” value [1] is given as “essentially equipotent”, the “inhibition of carcinoma cell line proliferation” value ([2]; compared to cell medium alone (p<0.00001)) is given as “significantly inhibited proliferation” and the “IC50 in carcinoma cell lines” value ([2]; listed as as-APF) is given as “low to mid nanomolar range”. For the same compound, the “mRNA and protein expression of total Akt, GSK3beta, beta catenin” value ([3]; T24 cells, p>0.05) was “neither mRNA nor protein expression of total Akt, GSK3beta, or beta catenin changed significantly”, the “Akt phosphorylation (serine 473 and threonine 308)” value [3, 4] was “significantly decreased” and the “GSK3beta phosphorylation (tyrosine 216)” value [3, 4] was “significantly decreased”. For the same compound, the “beta catenin phosphorylation (serine 33/37 and threonine 41)” value [3, 4] was “significantly increased”, the “beta catenin phosphorylation (serine 45)” value [3, 4] was “significantly decreased” and the “inhibition of melanoma cell proliferation” value (Hs839.T melanoma cells; 48 hrs, compared to cell medium alone (p<0.00001)) was “significantly inhibited proliferation”. For the same compound, the “IC50 in melanoma cells” value (Hs839.T melanoma cells; 48 hrs, listed as as-APF) was “low to mid nanomolar range”, the “inhibitor concentration at which significant inhibition occurred, melanoma cells vs carcinoma cells” value (Hs839.T melanoma cells; listed as as-APF) was 1-2 orders of magnitude higher and the “inhibitor concentration at which significant inhibition occurred, melanoma cells vs carcinoma cells” value (Hs839.T melanoma cells; listed as asialo-APF) was 2 orders of magnitude higher.
